≈ marks a conversion by molar mass, not a printed value.
Tests used:
Proteus vulgaris = assay: Antibacterial activity against Proteus vulgaris ATCC 13315 assessed as inhibition of bacterial growth incubated for 18 to 24 hrs by serial dilution method; type: functional; details: time 18-24 hrs
Bacillus subtilis [1] = assay: Antibacterial activity against Bacillus subtilis ATCC 66333 assessed as inhibition of bacterial growth incubated for 18 to 24 hrs by serial dilution method; type: functional; details: time 18-24 hrs
[2] = system: Staphylococcus epidermidis; assay: Antibacterial activity against Staphylococcus epidermidis ATCC 14990 assessed as inhibition of bacterial growth incubated for 18 to 24 hrs by serial dilution method; type: functional; details: time 18-24 hrs
Enterobacter cloacae = assay: Antibacterial activity against Enterobacter cloacae ATCC 13047 assessed as inhibition of bacterial growth incubated for 18 to 24 hrs by serial dilution method; type: functional; details: time 18-24 hrs
Salmonella typhimurium = assay: Antibacterial activity against Salmonella enterica subsp. enterica serovar Typhimurium ATCC 14028 assessed as inhibition of bacterial growth incubated for 18 to 24 hrs by serial dilution method; type: functional; details: time 18-24 hrs
Tyrosinase [3] = molecular target: T1, Tyrosinase (Agaricus bisporus, UniProt O42713); assay: Inhibition of mushroom tyrosinase using L-DOPA as substrate incubated for 20 mins by microplate reader assay
T1 sequence (O42713 whole entry): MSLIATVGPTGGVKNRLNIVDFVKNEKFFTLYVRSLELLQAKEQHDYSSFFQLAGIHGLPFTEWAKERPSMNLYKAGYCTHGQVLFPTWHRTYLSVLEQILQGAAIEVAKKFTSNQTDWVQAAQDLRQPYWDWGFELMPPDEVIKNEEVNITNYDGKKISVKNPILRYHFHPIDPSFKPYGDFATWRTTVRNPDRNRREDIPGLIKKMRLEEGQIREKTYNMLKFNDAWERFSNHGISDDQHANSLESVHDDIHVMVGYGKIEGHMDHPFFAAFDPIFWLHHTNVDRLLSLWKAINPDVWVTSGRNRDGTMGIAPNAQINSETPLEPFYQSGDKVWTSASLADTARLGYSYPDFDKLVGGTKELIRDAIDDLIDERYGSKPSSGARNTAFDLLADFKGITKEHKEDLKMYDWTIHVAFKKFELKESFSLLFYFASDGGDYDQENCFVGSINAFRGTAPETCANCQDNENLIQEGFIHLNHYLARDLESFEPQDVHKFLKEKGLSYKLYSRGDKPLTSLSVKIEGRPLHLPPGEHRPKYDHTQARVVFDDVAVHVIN

Klebsiella pneumoniae = assay: Antibacterial activity against Klebsiella pneumoniae ATCC 13883 assessed as inhibition of bacterial growth incubated for 18 to 24 hrs by serial dilution method; type: functional; details: time 18-24 hrs
Tyrosinase [4] = molecular target: T1, Tyrosinase; assay: Inhibition of mushroom tyrosinase using L-DOPA as substrate incubated for 10 mins by spectrophotometer assay
Staphylococcus aureus [5] = assay: Antibacterial activity against Methicillin-resistant Staphylococcus aureus assessed as inhibition of bacterial growth by agar dilution method; type: functional
Tyrosinase [6] = molecular target: T2, Tyrosinase (Homo sapiens, UniProt P14679); assay: Inhibition of tyrosinase (unknown origin) using DOPA as substrate incubated for 15 min by spectrophotometer assay
T2 sequence (P14679 whole entry): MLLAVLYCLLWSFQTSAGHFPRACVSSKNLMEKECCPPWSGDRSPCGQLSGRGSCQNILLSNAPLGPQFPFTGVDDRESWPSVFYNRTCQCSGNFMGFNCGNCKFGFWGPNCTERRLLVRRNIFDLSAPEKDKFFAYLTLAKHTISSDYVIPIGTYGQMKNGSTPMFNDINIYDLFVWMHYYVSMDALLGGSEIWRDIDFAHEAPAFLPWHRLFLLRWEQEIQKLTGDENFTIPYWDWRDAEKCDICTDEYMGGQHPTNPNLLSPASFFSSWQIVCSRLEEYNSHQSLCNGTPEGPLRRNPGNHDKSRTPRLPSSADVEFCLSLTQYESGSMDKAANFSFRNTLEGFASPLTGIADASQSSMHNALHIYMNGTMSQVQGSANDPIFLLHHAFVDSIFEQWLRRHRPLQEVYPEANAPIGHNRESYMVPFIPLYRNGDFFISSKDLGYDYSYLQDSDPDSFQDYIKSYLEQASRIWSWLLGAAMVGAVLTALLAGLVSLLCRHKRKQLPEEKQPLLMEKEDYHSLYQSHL

Staphylococcus aureus [7] = assay: Antibacterial activity against Staphylococcus aureus assessed as zone of inhibition; type: functional
Bacillus cereus = assay: Antibacterial activity against Bacillus cereus ATCC 27348 assessed as zone of inhibition at 10 ug per disk incubated for 12 hrs by paper-disk diffusion assay; type: functional; details: read-out: IZ
Bacillus subtilis [8] = assay: Antibacterial activity against Bacillus subtilis ATCC 9372 assessed as zone of inhibition at 10 ug per disk incubated for 12 hrs by paper-disk diffusion assay; type: functional; details: read-out: IZ
Staphylococcus aureus [9] = assay: Antibacterial activity against Staphylococcus aureus ATCC 13301 assessed as zone of inhibition at 10 ug per disk incubated for 12 hrs by paper-disk diffusion assay; type: functional; details: read-out: IZ
Bacillus subtilis [10] = assay: Antibacterial activity against Bacillus subtilis assessed as zone of inhibition at 300 ug/ml; type: functional; details: read-out: IZ
Fusobacterium nucleatum = assay: Antibacterial activity against Fusobacterium nucleatum ATCC 10953 assessed as inhibition of bacterial growth incubated for 48 hrs by microbroth dilution method; type: functional
[11] = system: Staphylococcus epidermidis; assay: Antibacterial activity against Staphylococcus epidermidis ATCC 35984 assessed as inhibition of bacterial growth incubated for 24 hrs by two-fold serial dilution method; type: functional
Enterococcus faecalis = assay: Antibacterial activity against Enterococcus faecalis assessed as zone of inhibition; type: functional, organism-based
Staphylococcus aureus [12] = assay: Antibacterial activity against Methicillin-resistant Staphylococcus aureus assessed as inhibition of bacterial growth by broth microdilution method
[13] = system: Staphylococcus epidermidis; assay: microbe, parasite or virus in culture; details: TISTR 517
Description: Antibacterial activity against Staphylococcus epidermidis TISTR 517 assessed as inhibition of bacterial growth by broth microdilution method

Staphylococcus aureus [14] = assay: microbe, parasite or virus in culture; details: ATTC 25923
Description: Antibacterial activity against Staphylococcus aureus ATTC 25923 assessed as inhibition of bacterial growth by broth microdilution method

Tyrosinase [15] = molecular target: T1, Tyrosinase; assay: Inhibition of mushroom tyrosinase using L-DOPA as substrate pre-incubated for 10 mins followed by substrate addition and measured after 20 mins by microplate reader assay

O=c1cc2n(c3ccccc13)[B-](F)(F)[n+]1ccccc1-2 was tested, and the MIC (Proteus vulgaris) was at most 18.8 µg/mL, the MIC (Bacillus subtilis [1]) was at most 18.8 µg/mL and the MIC [2] was at most 18.8 µg/mL. It also gave an MIC (Enterobacter cloacae) of at most 18.8 µg/mL, an MIC (Salmonella typhimurium) of at most 18.8 µg/mL and an IC50 (Tyrosinase [3]) of over 741 µM. It also gave an MIC (Klebsiella pneumoniae) of at most 18.8 µg/mL.
With Nc1ccccc1C1=NNC(c2ccccn2)C1 (configuration not stated) the MIC (Proteus vulgaris) was 18.8 µg/mL (≈ 78.7 µM), the MIC (Bacillus subtilis [1]) was 18.8 µg/mL (≈ 78.7 µM) and the MIC [2] was 18.8 µg/mL (≈ 78.7 µM). For the same compound, the MIC (Enterobacter cloacae) was 18.8 µg/mL (≈ 78.7 µM), the MIC (Salmonella typhimurium) was 18.8 µg/mL (≈ 78.7 µM) and the IC50 (Tyrosinase [3]) was 420 µM. It also gave an MIC (Klebsiella pneumoniae) of 18.8 µg/mL (≈ 78.7 µM).
With COc1c(N2C[C@@H]3CCCN[C@@H]3C2)c(F)cc2c(=O)c(C(=O)O)cn(C3CC3)c12 [MOXIFLOXACIN] the IC50 (Tyrosinase [3]) was 2.99 µM.
With C=C(C)C(CCC(C)(C)O)Cc1c(O)cc(OC)c2c1O[C@H](c1ccc(O)cc1O)CC2=O (some centres not stated) the IC50 (Tyrosinase [4]) was 0.11 µM.
Compound CCn1cc(C(=O)O)c(=O)c2cc(F)c(N3CCNCC3)cc21 [NORFLOXACIN] has an IC50 (Tyrosinase [3]) of 2.19 µM.
O=c1cc(-c2ccc(O)c(O)c2)oc2cc(O)cc(O)c12 [LUTEOLIN] showed an MIC (Staphylococcus aureus [5]) of 31.2 µg/mL (≈ 109 µM) and an IC50 (Tyrosinase [6]) of 2.14 µM.
CN[C@@H]1[C@H](O[C@H]2[C@H](O[C@H]3[C@H](O)[C@@H](O)[C@H](N=C(N)N)[C@@H](O)[C@@H]3N=C(N)N)O[C@@H](C)[C@]2(O)C=O)O[C@@H](CO)[C@H](O)[C@H]1O [STREPTOMYCIN] was tested, and the “inhibition zone (IZ)” value (Staphylococcus aureus [7]) was 20.3 mm.
C=C(C)C(CC=C(C)C)Cc1c(O)cc(OC)c2c1O[C@H](c1ccc(O)cc1O)CC2=O (some centres not stated) [KURARINONE] showed a zone of inhibition at 10 µg/disc (Bacillus cereus) of 14 mm, a zone of inhibition at 10 µg/disc (Bacillus subtilis [8]) of 14 mm and a zone of inhibition at 10 µg/disc (Staphylococcus aureus [9]) of 14 mm. The IC50 (Tyrosinase [4]) was 2.19 µM.
Compound C[C@@H]1O[C@@H](OC[C@H]2O[C@@H](Oc3c(-c4ccc(O)cc4)oc4cc(O)cc(O)c4c3=O)[C@H](O)[C@@H](O)[C@@H]2O)[C@H](O)[C@H](O)[C@H]1O [NICOTIFLOROSIDE] has an IC50 (Tyrosinase [6]) of 1.53 µM.
CC1(C)S[C@@H]2[C@H](NC(=O)[C@H](N)c3ccccc3)C(=O)N2[C@H]1C(=O)O [AMPICILLIN] was tested, and the zone of inhibition at 300 µg/mL (Bacillus subtilis [10]) was 17.9 mm.
OCCc1ccccc1 [PHENYLETHYL ALCOHOL] gave an MIC (Fusobacterium nucleatum) of 8 µg/mL (≈ 65.5 µM) and an IC50 (Tyrosinase [6]) of 2580 µM.
With F[B-]1(F)Nc2ccccc2C2=[N+]1NC(c1cccnc1)C2 (configuration not stated) the MIC [2] was 18.8 µg/mL (≈ 65.5 µM) and the IC50 (Tyrosinase [3]) was 350 µM.
With Nc1ccccc1C1=NNC(c2ccncc2)C1 (configuration not stated) the MIC [2] was 37.5 µg/mL (≈ 157 µM) and the IC50 (Tyrosinase [3]) was 420 µM.
In the case of C=C(C)C(CC=C(C)C)Cc1c(O)cc(O)c2c1O[C@H](c1ccc(O)cc1O)CC2=O (some centres not stated), the zone of inhibition at 10 µg/disc (Bacillus cereus) is reported as 14 mm, the MIC [11] is reported as 3.12 µg/mL (≈ 7.36 µM) and the zone of inhibition at 10 µg/disc (Bacillus subtilis [8]) is reported as 14 mm. For the same compound, the zone of inhibition at 10 µg/disc (Staphylococcus aureus [9]) was 14 mm and the IC50 (Tyrosinase [4]) was 4.71 µM.
Work on C[C@@H]1O[C@@H](OC[C@H]2O[C@@H](Oc3c(-c4ccc(O)c(O)c4)oc4cc(O)cc(O)c4c3=O)[C@H](O)[C@@H](O)[C@@H]2O)[C@H](O)[C@H](O)[C@H]1O [RUTIN] yielded an IC50 (Tyrosinase [6]) of 1.4 µM.
GENTAMICIN was tested, and the inhibition zone (IZ) (Enterococcus faecalis) was 10.6 mm.
CC(C)=CCC[C@@](C)(O)[C@@H]1CC=C(C)CC1 was tested, and the MIC (Fusobacterium nucleatum) was 8 µg/mL (≈ 36 µM) and the IC50 (Tyrosinase [6]) was 2860 µM.
Compound F[B-]1(F)Nc2ccccc2C2=[N+]1NC(c1ccncc1)C2 (configuration not stated) has an MIC [2] of 37.5 µg/mL (≈ 131 µM) and an IC50 (Tyrosinase [3]) of over 699 µM.
Compound CC(C)=CCC/C(C)=C/Cc1c(O)ccc(C=O)c1O has an MIC (Staphylococcus aureus [12]) of under 8 µg/mL, an MIC [13] of under 8 µg/mL and an MIC (Staphylococcus aureus [14]) of under 8 µg/mL. The IC50 (Tyrosinase [15]) was over 729 µM.
Work on F[B-]1(F)Nc2ccccc2C2=[N+]1NC(c1ccccn1)C2 (configuration not stated) yielded an MIC (Proteus vulgaris) of 37.5 µg/mL (≈ 131 µM), an MIC (Bacillus subtilis [1]) of 37.5 µg/mL (≈ 131 µM) and an MIC [2] of 37.5 µg/mL (≈ 131 µM). For the same compound, the MIC (Enterobacter cloacae) was 37.5 µg/mL (≈ 131 µM), the MIC (Salmonella typhimurium) was 37.5 µg/mL (≈ 131 µM) and the IC50 (Tyrosinase [3]) was 350 µM. The MIC (Klebsiella pneumoniae) was 37.5 µg/mL (≈ 131 µM).
Nc1ccccc1C1=NNC(c2cccnc2)C1 (configuration not stated) gave an MIC [2] of 150 µg/mL (≈ 629 µM) and an IC50 (Tyrosinase [3]) of 420 µM.
With O=c1c(O[C@@H]2O[C@H](CO)[C@H](O)[C@H](O)[C@H]2O)c(-c2ccc(O)c(O)c2)oc2cc(O)cc(O)c12 [HYPEROSIDE] the IC50 (Tyrosinase [6]) was 1.64 µM.

Reference: ChEMBL document CHEMBL5233214, “Tyrosinase inhibitors as potential antibacterial agents” (Eur J Med Chem, 2020)
